Test results published in patent US20050239764A1, “Zinc pyrrolidonecarboxylate dihydrate and method of producing the same” (Ajinomoto Co., Inc., priority 2004, published 2005).

Conditions: dihydrate; for transmittance (T %) of 10 g/dl aqueous solution: 4 g dissolved in water to 40 ml, kept at 25° C. for one day, stirred 1 min, 550 nm, optical path 10 mm, 25° C.; for liquid of 10 g/dl aqueous solution: evaluation grade of dissolution state from transmittance at 550 nm, 10 mm path
Protocol: Apparatus: Spectrophotometer V-570 (JAS. CO)
Spectrophotometer (UV/VIS/NIR)
measure wavelength: 550 nm
band width (near infrared): 8.0 nm
repeating interval: 3 sec.
measure cell: quartz glass cell T-1-UV-10 manufactured by TOSOH Quartz Co.
(Optical path width: 10 mm, outside width; 12.5 mm, height; 45 mm)
measure temperature: 25° C.(R.T.)
1) Stabilization of value was performed, thereby starting setting until 2 hours before measuring.
2) Determination of measuring program: Fixed Wavelength program was selected, and then initialization of wavelength was performed.
3) Injecting ion exchange water (about 3 ml) into each of blank cell and sample cell, setting on photometer, correcting zero point, and then determining a blank (Completion of measuring preparation).
RIKEN KOGYO INC., Magmix Stirrer) at 3 of speed range, and then the solution (3 ml) was injected into measuring cell immediately.
5) The cell was equipped photometer immediately after confirming absence of bubble in the cell.
6) After setting, the cell was stood for 1 min, and then subjected to measurement.
7) The transmittance (% T) is the value measured with photometer.
Under the above conditions, the transmittance was obtained accurately although measuring sample comprised insoluble material, because insoluble material was dispersed uniformly in the whole cell.

| Substance | transmittance (T %) of 10 g/dl aqueous solution [%] | liquid of 10 g/dl aqueous solution |
| --- | --- | --- |
| zinc pyrrolidonecarboxylate dihydrate [Com. Ex. 2, reference compound] | 30.6 | – |
| zinc pyrrolidonecarboxylate dihydrate [Com. Ex. 1, reference compound] | 17.5 | – |
| zinc pyrrolidonecarboxylate dihydrate [Ex. 4] | 97.6 | ⊚ |
| zinc pyrrolidonecarboxylate dihydrate [Ex. 7] | 95.7 | – |
| zinc pyrrolidonecarboxylate dihydrate [Ex. 1] | 96.6 | ◯ |
| zinc pyrrolidonecarboxylate dihydrate [Com. Ex. 3, reference compound] | 60.3 | – |
| zinc pyrrolidonecarboxylate dihydrate [Ex. 5] | 97.9 | ⊚ |
| zinc pyrrolidonecarboxylate dihydrate [Ex. 3] | 96.9 | ◯ |
| zinc pyrrolidonecarboxylate dihydrate [Ex. 2] | 97.6 | ⊚ |
| zinc pyrrolidonecarboxylate dihydrate [Com. Ex. 4, reference compound] | 19.9 | – |
| zinc pyrrolidonecarboxylate dihydrate [Ex. 6] | 86.1 | Δ (Δ: 93-85%) |
